According to patent publication US20230059136A1, “THE COMPOUNDS AND COMPOSITIONS FOR TREATING CONDITIONS ASSOCIATED WITH NLRP ACTIVITY” (Novartis AG, priority 2018, published 2023):
Like-named read-outs stand apart in the source and are kept apart here.

System: IL-1β production in PMA-differentiated THP-1 cells
Test: IL-1β production in PMA-differentiated THP-1 cells stimulated with gramicidin (hTHP-1 assay containing 2% fetal bovine serum)
Type: cell-based, human
Settings: 2% fetal bovine serum, read-out: hTHP-1 IC50 (Average IC50 of compounds in hTHP-1 assay)
Outline: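 THP-1 cells were differentiated with PMA 20 ng/ml for 16-18 h, then plated at 50,000 cells/well in RPMI with 2% FBS. They were preincubated 1 h with compound (100–0.0017 μM final, 0.37% DMSO), then stimulated with gramicidin 5 μM for 2 h. Supernatant IL-1β was measured by HTRF.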

[1] = Homo sapiens, THP-1, Table B1, class symbols
[2] = Homo sapiens, THP-1, Table B1, cells printed as numeric bound

CC(C)c1cc(C#CC2CCCCC2)cc(C(C)C)c1CC(=O)N=S(N)(=O)c1cc(C(C)(C)O)n(-c2ccccc2)n1 (single isomer, unassigned) [Example 279, (R) or (S)-N-(amino(5-(2-hydroxypropan-2-yl)-1-phenyl-1H-pyrazol-3-yl)(oxo)-λ^6-sulfaneylidene)-2-(4-(cyclohexylethynyl)-2,6-diisopropylphenyl) acetamide]
IC50 [1]: 1000 to 5000 nM

CC(C)c1cc2c(c(C(C)C)c1CC(=O)N=S(N)(=O)c1cc(C(C)(C)O)cs1)COC2 (single isomer, unassigned) [Example 217, (S) or (R)-N-(amino (4-(2-hydroxypropan-2-yl)thiophen-2-yl)(oxo)-λ^6-sulfaneylidene)-2-(4,6-diisopropyl-1,3-dihydro-isobenzofuran-5-yl)acetamide]
IC50 (Table B1, class symbols): 5000 to 30000 nM

CC(C)c1cc2c(c(C(C)C)c1CC(=O)N=S(N)(=O)c1cnc(C(C)(O)CO)s1)COC2 (single isomer, unassigned) [Example 339, (R, S) or (S, S)-N-(amino(2-(1,2-dihydroxypropan-2-yl)thiazol-5-yl)(oxo)-λ^6-sulfaneylidene)-2-(4,6-diisopropyl-1,3-dihydroisobenzofuran-5-yl)acetamide]
IC50 [2]: > 30000 nM

CC(C)c1cc(F)cc(C(C)C)c1C(C)C(=O)N=S(N)(=O)c1cnc(C(C)(C)O)s1 (single isomer, unassigned) [Example 195, (R, R) or (R, S)-N-(amino (2-(2-hydroxypropan-2-yl)thiazol-5-yl)(oxo)-λ^6-sulfaneylidene)-2-(4-fluoro-2,6-diisopropylphenyl) propanamide]
IC50 [2]: > 30000 nM

CC(C)c1cc2c(c(C(C)C)c1CC(=O)N=S(N)(=O)c1ccc(CN(C)C)cc1)COC2 (single isomer, unassigned) [Example 191, (R) or (S)-N-(amino(4-((dimethylamino)methyl)phenyl)(oxo)-λ^6-sulfaneylidene)-2-(4,6-diisopropyl-1,3-dihydroisobenzofuran-5-yl)acetamide]
IC50 [1]: 1000 to 5000 nM

CCc1cc2c(c(C(C)C)c1CC(=O)N=S(N)(=O)c1cnc(C(C)(C)O)s1)COC2 (single isomer, unassigned) [Example 291, (R) or (S)-N-(amino(2-(2-hydroxypropan-2-yl)thiazol-5-yl)(oxo)-λ^6-sulfaneylidene)-2-(6-ethyl-4-isopropyl-1,3-dihydroisobenzofuran-5-yl)acetamide]
IC50 [1]: 5000 to 30000 nM

CC(C)c1cc(F)cc(C(C)C)c1C(C)C(=O)N=S(N)(=O)c1cnc(C(C)(C)O)s1 (racemic) [Example 193, (S, S) and (S, R)-N-(amino (2-(2-hydroxypropan-2-yl)thiazol-5-yl)(oxo)-λ^6-sulfaneylidene)-2-(4-fluoro-2,6-diisopropylphenyl) propanamide]
IC50 [2]: > 30000 nM

CC(C)c1cc(F)cc(C(C)C)c1CC(=O)NS(=N)(=O)c1ccc(C(C)(C)O)cc1 (single isomer, unassigned) [Example 2]
IC50 [1]: 1000 to 5000 nM

CC(C)c1ccc(F)c(C(C)C)c1CC(=O)N=S(N)(=O)c1ccc(C(C)(C)O)s1 (single isomer, unassigned) [Example 176, (R) or (S)-N-(amino(5-(2-hydroxypropan-2-yl)thiophen-2-yl)(oxo)-λ^6-sulfaneylidene)-2-(3-fluoro-2,6-diisopropylphenyl) acetamide]
IC50 (Table B1, class symbols): 200 to 1000 nM

CCc1cc2c(c(C(C)C)c1CC(=O)N=S(N)(=O)c1cnc(C(C)(C)O)s1)COC2 (single isomer, unassigned) [Example 292, (S) or (R)-N-(amino(2-(2-hydroxypropan-2-yl)thiazol-5-yl)(oxo)-λ^6-sulfaneylidene)-2-(6-ethyl-4-isopropyl-1,3-dihydroisobenzofuran-5-yl)acetamide]
IC50 [2]: > 30000 nM

CC(C)c1cc(C#N)c(F)c(C(C)C)c1CC(=O)N=S(N)(=O)c1cc(C(C)(O)CO)n(-c2ccccc2)n1 (centres unmarked) [Example 247, N-(amino(5-(1,2-dihydroxypropan-2-yl)-1-phenyl-1H-pyrazol-3-yl)(oxo)-λ^6-sulfaneylidene)-2-(4-cyano-3-fluoro-2,6-diisopropylphenyl)acetamide]
IC50 [1]: 1000 to 5000 nM

CC(C)c1cc(C#N)c(F)c(C(C)C)c1CC(=O)N=S(N)(=O)c1cc(C(C)(C)O)n(-c2ccccc2)n1 (single isomer, unassigned) [Example 275, (R) or (S)-N-(amino (5-(2-hydroxypropan-2-yl)-1-phenyl-1H-pyrazol-3-yl)(oxo)-λ^6-sulfaneylidene)-2-(4-cyano-3-fluoro-2,6-diisopropylphenyl) acetamide]
IC50 (Table B1, class symbols): 200 to 1000 nM

CC(C)c1cc2c(c(C(C)C)c1CC(=O)N=S(N)(=O)c1cnn3c1OCCC3)COC2 (single isomer, unassigned) [Example 310, (R) or (S)-N-(amino (6,7-dihydro-5H-pyrazolo[5,1-b][1,3]oxazin-3-yl)(oxo)-λ^6-sulfaneylidene)-2-(4,6-diisopropyl-1,3-dihydroisobenzofuran-5-yl)acetamide]
IC50 [1]: 1000 to 5000 nM

CC(C)(O)c1ncc(S(N)(=O)=NC(=O)Cc2c3c(cc4c2CC4)CCC3)s1 [Example 223, (S)- and (R)—N-(amino(2-(2-hydroxypropan-2-yl)thiazol-5-yl)(oxo)-λ^6-sulfaneylidene)-2-(2,4,5,6-tetrahydro-1H-cyclobuta[f]inden-3-yl)acetamide]
IC50 (Table B1, class symbols): 1000 to 5000 nM

CC(C)c1cc(COC2CCCC2)cc(C(C)C)c1CC(=O)N=S(N)(=O)c1cnc(C(C)(O)CO)s1 (centres unmarked) [Example 251, N-(amino(2-(1,2-dihydroxypropan-2-yl)thiazol-5-yl)(oxo)-λ^6-sulfaneylidene)-2-(4-((cyclopentyloxy)methyl)-2,6-diisopropylphenyl)acetamide]
IC50 [1]: 200 to 1000 nM

CC(C)c1nc(C(F)(F)F)nc(C(C)C)c1CC(=O)N=S(N)(=O)c1cnc(C(C)(C)O)s1 (centres unmarked) [Example 153, N-(amino(2-(2-hydroxypropan-2-yl)thiazol-5-yl)(oxo)-λ^6-sulfaneylidene)-2-(4,6-diisopropyl-2-(trifluoromethyl)pyrimidin-5-yl)acetamide]
IC50 [1]: 1000 to 5000 nM

CC(C)c1cc(C(F)F)cc(C(C)C)c1CC(=O)N=S(N)(=O)c1sc(C(C)(C)O)cc1F (single isomer, unassigned) [Example 81, (R)- or (S)-2-(4-(difluoromethyl)-2,6-diisopropylphenyl)-N-(3-fluoro-5-(2-hydroxypropan-2-yl)thiophen-2-ylsulfonimidoyl)acetamide]
IC50 (Table B1, class symbols): 200 to 1000 nM

CC(C)c1cc(C(F)F)cc(C(C)C)c1CC(=O)N=S(N)(=O)c1ccc(CN(C)C)nc1 (centres unmarked) [Example 230, N-(amino(6-((dimethylamino)methyl)pyridin-3-yl)(oxo)-λ^6-sulfaneylidene)-2-(4-(difluoromethyl)-2,6-diisopropylphenyl)acetamide]
IC50 [1]: 1000 to 5000 nM

CC(C)c1cc(F)cc(C(C)C)c1CC(=O)N=S(N)(=O)c1ccc(C(C)(C)O)cc1 (centres unmarked) [Example 1, 2-(4-Fluoro-2,6-diisopropylphenyl)-N-(4-(2-hydroxypropan-2-yl)phenylsulfonimidoyl)acetamide]
IC50 [1]: 1000 to 5000 nM

CC(C)c1cc(C(F)F)nc(C(C)C)c1CC(=O)N=S(N)(=O)c1sc(CN(C)C)cc1F (single isomer, unassigned) [Example 305, (S) or (R)-N-(amino(5-((dimethylamino)methyl)-3-fluorothiophen-2-yl) (oxo)-λ^6-sulfaneylidene)-2-(6-(difluoromethyl)-2,4-diisopropylpyridin-3-yl)acetamide]
IC50 [2]: > 30000 nM

CC(C)c1cc(C#N)c(F)c(C(C)C)c1CC(=O)N=S(=O)(NC(N)=O)c1cnc([C@](C)(O)CO)s1 (some centres unmarked) [compound 355]
IC50 (Homo sapiens, THP-1, Table B2, cells printed as numeric bound): > 30000 nM

CC(C)c1ccc(F)c(C(C)C)c1CC(=O)N=S(N)(=O)c1cc(C(C)(C)O)cs1 (single isomer, unassigned) [Example 159, (R) or (S)-N-(amino(4-(2-hydroxypropan-2-yl)thiophen-2-yl)(oxo)-λ^6-sulfaneylidene)-2-(3-fluoro-2,6-diisopropylphenyl) acetamide]
IC50 (Table B1, class symbols): 40 to 200 nM

CC(C)c1cc(C#N)cc(C(C)C)c1CC(=O)N=[S@@](=O)(NC#N)c1sc(C(C)(C)O)nc1CCO [Example 374, (R)-N-(cyanamido(4-(2-hydroxyethyl)-2-(2-hydroxypropan-2-yl)thiazol-5-yl)(oxo)-λ^6-sulfaneylidene)-2-(4-cyano-2,6-diisopropylphenyl)acetamide]
IC50 (Homo sapiens, THP-1, Table B2, class symbols): 40 to 200 nM

CNCc1ccc(S(N)(=O)=NC(=O)Cc2c(C(C)C)cc(C(F)F)cc2C(C)C)cc1 (centres unmarked) [Example 255, N-(amino(4-((methylamino)methyl)phenyl)(oxo)-λ^6-sulfaneylidene)-2-(4-(difluoromethyl)-2,6-diisopropylphenyl)acetamide]
IC50 [1]: 5000 to 30000 nM

CC(C)c1cc(-c2ccc(Cl)c(Cl)c2)cc(C(C)C)c1CC(=O)N=S(N)(=O)c1ncc(C(C)(C)O)s1 (single isomer, unassigned) [Example 170, (R) or (S)-N-(amino(5-(2-hydroxypropan-2-yl)thiazol-2-yl)(oxo)-λ^6-sulfaneylidene)-2-(3′,4′-dichloro-3,5-diisopropyl-[1,1′-biphenyl]-4-yl)acetamide]
IC50 (Table B1, class symbols): 200 to 1000 nM

CC(C)c1cc(C#N)c(F)c(C(C)C)c1CC(=O)N=S(N)(=O)c1cnc(C(O)(CO)CO)s1 (single isomer, unassigned) [Example 402, (R) or (S)-N-(amino(oxo) (2-(1,2,3-trihydroxypropan-2-yl)thiazol-5-yl)-λ^6-sulfaneylidene)-2-(4-cyano-3-fluoro-2,6-diisopropylphenyl)acetamide]
IC50 (Table B2, class symbols): 200 to 1000 nM
